# Measurements: PMC6598159 (ACS Central Science, 2019)
# Test: CYP reaction phenotyping in HLM with selective CYP inhibitors
# Details: ketoconazole 1 or 10 μM; ticlopidine 20 μM; mitragynine 2 μM
compound,measurement,value
CC(=O)N1CCN(c2ccc(OCC3COC(Cn4ccnc4)(c4ccc(Cl)cc4Cl)O3)cc2)CC1 (centres unmarked) [ketoconazole],effect on decomposition of mitragynine in HLM,robustly inhibited
same,effect on formation of 7-OH from mitragynine in HLM,robustly inhibited
